One data set deals with MNTB neurons. In words: High-voltage activated potassium currents in MNTB neurons, in vitro. The class given is cell-based, mouse. The note with it: 10 microM in continuing presence of TEA (1 mM); effect on the TEA-induced reduction. On the procedure: Male CBA/Ca mice (aged 12-16 days) were used in these experiments (in accordance with the UK Animals Scientific Procedures Act, 1986). Brain slices containing the medial nucleus of the trapezoid body (MNTB) were prepared as described previously (Brew and Forsythe, 2005).
Chemicals and reagents were purchased from Sigma, (Poole, UK) unless otherwise noted. Reference Example RE1 was dissolved in DMSO and diluted in ACSF to the required concentration.
Recordings from identified MNTB neurons were conducted as previously described (Brew and Forsythe, 2005). Slices was placed in a superfusion chamber on an inverted microscope stage and continuously perfused with gassed (95% O2-5% CO2) ACSF at a rate of 1 ml min-1 at room temperature. Whole-cell recordings were made from visually identified MNTB neurons using an […] amplifier (Molecular Devices, Union City, Calif., USA). Patch solution comprised (in mM) potassium gluconate (97.5), KCl (32.5), Hepes (40), EGTA (5), MgCl2 (1), Na2phosphocreatin (5), pH 7.2 with KOH. Pipettes had resistances of 3-5 MΩ and series resistances were 6-10 MΩ (compensated by 70%, 10 μs lag). Access resistance was frequently monitored and the recording discarded if increases were more than 2 MΩ. […]

Another data set concerns Male CD rats. Nature of the data set: Electroshock seizure model in rats. The data set is classed as in vivo, rat. The note with it: 2 hours before test. On the procedure:
Male CD rats (85-130 g) were supplied by Charles River, Italy.
(§1) Testing involved determining the threshold for tonic hindlimb extensor seizures using a Hugo Sachs Electronik stimulator which delivers a constant current of 0.3 second duration, 50 Hz, sinewave form, fully adjustable between 1 and 300 mA. Stimuli were delivered via corneal electrodes (Stean T O, Atkins A R, Heidbreder C A, Quinn L P, Trail B K, Upton N. (2005) Br J Pharmacol. 144(5):628-35). Seizure threshold was determined using the ‘up and down’ method of Kimball et al. (1957)(Kimball A W, Burnett W T Jr, Doherty D G. (1957) Radiat Res. 7(1):1-12). The first animal tested in each group was stimulated with a current that might be expected to be close to the threshold for induction of a seizure. If a tonic seizure was not induced, then the next animal in the group received a stimulus 5 mA higher. If a tonic seizure was induced, then the next animal received a stimulus 5 mA lower. This is repeated for all animals within the control (vehicle) group. In the case of groups treated with a test compound steps of 5 to 10 mA were used. At the end of the study, blood samples were taken for analysis of the drug concentrations in this compartment (n=4/group).
(§2) All doses were calculated as base. Sodium valproate was suspended in Methocell 1% (w/v) and dosed via the oral (p.o.) route at 5 mL/kg 1 hour before test. Reference Example RE1 was dissolved in DMSO and then suspended in Methocell 1% (w/v) to a final DMSO concentration of 5% (v/v). Reference Example RE1 was then dosed p.o. at 5 mL/kg 2 hours before test.
Induction of seizure is measured as an all-or-nothing effect scored as either present (+) or absent (0) for each animal. […] Drug effects were calculated as the % change in CC50. Significant differences between drug-treated animals and appropriate vehicle treated groups were assessed according to the methods of Litchfield and Wilcoxon (1949).

Data set [1] can be described thus: Blood concentrations in satellite animals of the electroshock seizure study. The data set is classed as in vivo. The following applies: CD, whole blood, po, rat, 2 hours after dosing. On the procedure: as §1, §2
Blood concentrations of Reference Example RE1 measured in satellite animals 2 hours after dosing were 5.3 and 9.1 μg/mL following the doses of 30 and 60 mg/kg p.o., respectively. These concentrations are equivalent to unbound concentrations in blood of 1.3 and 2.2 μM, respectively, and thus are consistent with concentrations of Reference Example RE1 that produce a significant increase in Kv3-mediated currents observed in the in vitro recombinant human Kv3 electrophysiology assay, described above.

In the next data set the test system is Adult male CD rats. In words: Assessment of physiological sleep in the rat (EEG/EMG telemetry). The data set is classed as in vivo. The note with it: 60 mg/kg oral at CT18, 5 hour period following dosing. On the procedure: Adult male CD rats (C. River, Italy) were implanted with telemetric probes and housed singly, under controlled condition (temperature 18-20° C.; relative humidity 45-50%; 12 hours light-dark cycle, lights on at 3 p.m., designated Circadian Time (CT) 0) with free access to food and water.
Reference Example RE1 was formulated in tween (0.1% v/v) and HPMC (0.5% v/v) and was administered orally at doses of 10, 30 and 60 mg/kg (vol. 2 ml/kg) at CT18 (6 hours before lights on). The electroencephalogram (EEG) and electromyogram (EMG) were recorded continuously, starting immediately after administration, using telemetric apparatus (DSI Dataquest® A.R.T. system). EEG and EMG recordings were analysed to evaluate sleep patterns using sleepSign® (Kissei Comtec Co.). Statistical analyses (1-way Anova followed by a Dunnett's test) was performed using Statistica-8 software.

A further data set deals with Male CD-1 mice. In words: Psychostimulant (amphetamine)-induced hyperactivity in mice. The following applies: AMPH 2 mg/kg i.p. + compound 10 mg/kg p.o. 30 min before; over 60 min; mean ± sem.

Where two headings read alike, the source gives them in different places.

On to `CC[C@H]1NC(=O)N(c2ccc(Oc3ccc(C)c(OC)c3)nc2)C1=O` [RE1, (5R)-5-ethyl-3-(6-{[4-methyl-3-(methyloxy)phenyl]oxy}-3-pyridinyl)-2,4-imidazolidinedione], for which the “amplitude of outward high voltage-activated potassium currents evoked by voltage steps to +40 mV” value with MNTB neurons is given as “reversed”. Further, the entries for the “increase in seizure threshold (% change in CC50)” value in the data set with Male CD rats (30 mg/kg p.o.) and in the data set on Male CD rats (60 mg/kg p.o.) were 91% and 218%, respectively. In addition, the concentration at 2 h amounted to 5300 ng/mL in data set [1] (30 mg/kg p.o., read-out: blood concentration); 1300 nM in data set [1] (30 mg/kg p.o., read-out: unbound concentration in blood); 9100 ng/mL in data set [1] (60 mg/kg p.o., read-out: blood concentration); 2200 nM in data set [1] (60 mg/kg p.o., read-out: unbound concentration in blood). Besides, the “time spent in REM sleep” value in the data set on Adult male CD rats is listed as “did not affect”. Further, the “time spent in non-REM sleep” value in the data set with Adult male CD rats (p<0.05, n=8) is “significantly increased”. Further, the total sleep time result with Adult male CD rats (p<0.05, n=8) is given as “significantly increased”. For the same molecule, the “Total Distance Travelled (cm)” value in the data set with Male CD-1 mice is listed as 15267 ± 3166 cm.
